Data reported in patent US6841657B2, “Inhibitors of HIV membrane fusion” (priority 1998, dated 2005).
Positions of bridges follow the written chain, without caps; N, C: chain ends. Non-standard residues stand in square brackets, D forms with d.

Tests used:
[1] = tested on: hydrophobic pocket of IQN17 (gp41); test: 1H NMR assay of binding to the IQN17 hydrophobic pocket; parameters: species or system HIV-1; conditions: 1:1 complex with IQN17, 25° C., 100 mM NaCl, 50 mM sodium phosphate pH 7.5, D2O
Description: NMR experiments were used to assay the binding of each D-peptide to IQN17. The single tryptophan residue of IQN17 (denoted Trp-571) provides an excellent probe of specific binding to the hydrophobic pocket of gp41. […] To test a compound for binding to the gp41 pocket, two one-dimensional ^1H NMR measurements were made on samples in deuterated buffers. First, a reference (control) spectrum of IQN17 was taken, identifying the Trp571 chemical shifts in the unbound form. A second spectrum was acquired on a sample containing both IQN17 and the compound in question. An optional third spectrum of the D-peptide (or other small molecule, or mix of molecules) was also taken. ^1H NMR experiments were performed on a Bruker AMX 500 spectrometer. Data was processed in Felix 98.0 (MSI) on Silicon Graphics computers, and all spectra were referenced to DSS. All experiments were performed at 25° C. in 100 mM NaCl, 50 mM sodium phosphate (pH 7.5). All buffers used were >99.7% D2O, to remove overlapping resonances from exchangeable backbone and side chain protons. Solute concentrations ranged from 0.3-1.0 mM for individual peptides, 0.8-1.0 mM for 1:1 commplexes of IQN17 with each D-peptide.
Simple binding of two or more components is expected to result both in broader peaks (due to the increased size of the complex) and in changes in chemical shifts (due to the different chemical environments experienced by nuclei in free and bound forms). Specific binding to the hydrophobic pocket is indicated by a change in the Trp-571 chemical shifts, as well as by a broadening of peaks. Binding can also be indicated by similar changes in the chemical shifts and peak widths of the molecule (peptides and small organic molecules, for example) assayed. […] All IQN17/D-peptide complexes studied gave similar results, though varying in the degree of chemical shift dispersion (FIG. 9B). Thus, binding was indicated in all cases.
To confirm that the strongly upfield-shifted peaks all correspond to a single sidechain (almost certainly Trp-571), two-dimensional NMR (TOCSY) experiments were performed on each of the IQN17/D-peptide complexes. As expected, the TOCSY experiments indicate that in each complex, the strongly upfield-shifted resonances all belong to the same aromatic side chain, identified as a group of four scalar-coupled protons. For several of the complexes studied, NOESY experiments also indicate contact between this sidechain and other (unassigned) aromatic groups, as expected from the IQN17/D10pep1 structure. Not all of the potential NOE crosspeaks could be resolved, due to intense spectral overlap in the 6.8-7.6 ppm region. 2D NOESY and TOCSY experiments as described in J. Cavanaugh, W. J. Fairbrother, A. G. Palmer, N. J. Skelton, Protein NMR Spectroscopy: Principles and Practice (1996) were performed on samples of IQN17 and of each complex, with mixing times ranging between 30-90 ms (NOESY) and 30-70 ms (TOCSY). Spectral widths of 11,111 Hz and 5555 Hz were used in the acquisition (t2) and indirect (t1) dimensions, respectively. TOCSY experiments employed the DIPSI-2rc mixing sequence (J. Cavanaugh, M. Rance, J. Magn. Reson. Serv. A., 105:328 (1993)).

[2] = tested on: recombinant luciferase-expressing HIV-1; type: cell-based; conditions: infectivity assay
Method: The potency of C34 peptides in inhibiting viral infection and the HIV-1 infection inhibitory activity of the D-peptides were assayed using recombinant luciferase-expressing HIV-1 (Chen, B. K. et al., J. Virol., 68:654 (1994); Malashkevich, V. N., et al., Proc. Natl. Acad. Sci., USA, 95:9134 (1998)).
The apparent melting temperatures (Tm) were estimated from the thermal dependence of the CD signal at 222 nm. Inhibition of viral entry was measured in a cell-culture infection assay using recombinant luciferase-expressing HIV-1. Inhibition of cell-cell fusion was measured in a syncytium assay. The means and standard errors are from triplicate trials.

[3] = tested on: syncytia formation between Chinese hamster ovary cell expressing HXB2 envelope and HeLa-CD4-LTR-Beta-gal cells; conditions: two additional N-terminal lysines vs parent D-peptide
Method: In each instance, a blocking group (e.g., an acetyl group) was present at the N terminus and a CONH2 (amide) was present at the C-terminus.
Inhibition of cell/cell fusion (i.e., syncytia formation) was assayed by co-culturing Chinese hamster ovary cell expressing HXB2 envelope (K. Kozarsky, et al., J. Acquir. Immune. Defic. Syndr., 2:163 (1989) and the HeLa-CD4-LTR-Beta-gal cells (M. Emerman, NIH AIDS Reagent program) in the presence of varying concentration of peptide. When mixed, these cells form syncytia, or multi-nucleated cells, which express β-galactosidase. Approximately twenty hours after co-culturing the cells, the monolayers were stained with 5-bromo-4-chloro-3-indolyl-β-D-galactoside to visualize the syncytia. The syncytia are visualized with a microscope and counted manually (a syncytia is scored as a fused cell containing three or more nuclei). The IC50 was calculated from fitting the data to a Langmuir equation [y=k/(1+[peptide]/IC50)+x], where y=number of syncytia and k and x are scaling constants.

HIV-1 = conditions: Phase I clinical trial; cited from earlier work

Row | Substance | binding to the hydrophobic pocket of IQN17 [1] | also measured
1 | Ac-KKGACGLGQEEWFWLCAA-CONH2 (Ac-KKG[dA][dC]G[dL]G[dQ][dE][dE][dW][dF][dW][dL][dC][dA][dA]-NH2; disulfide 5-16 (inferred); not fully specified (residues 1, 2); printed as Ac-KKGACGLGQEEWFWLCAA-CONH2) [Peptide D10pep3] | contact the pocket with very similar binding interfaces | 
2 | Ac-GACEARHREWAWLCAA-CONH2 (Ac-G[dA][dC][dE][dA][dR][dH][dR][dE][dW][dA][dW][dL][dC][dA][dA]-NH2; disulfide 3-14 (inferred)) [Peptide D10pep1] | contact the pocket with very similar binding interfaces | inhibition of infection of cells [2]: inhibit infection of cells
3 | Ac-KKGACEARHREWAWLCAA-CONH2 (Ac-KKG[dA][dC][dE][dA][dR][dH][dR][dE][dW][dA][dW][dL][dC][dA][dA]-NH2; disulfide 5-16 (inferred); not fully specified (residues 1, 2); printed as Ac-KKGACEARHREWAWLCAA-CONH2) [Peptide D10pep1a] | broader peaks and dramatically different chemical shifts | IC50 for inhibition of syncytia formation relative to parent peptide without the added lysines [3]: approximately 2 fold
4 | enfuvirtide |  | antiviral activity in vivo (HIV-1): reduced viral loads
5 | Ac-KKGACMRGEWEWSWLCAA-CONH2 (Ac-KKG[dA][dC][dM][dR]G[dE][dW][dE][dW][dS][dW][dL][dC][dA][dA]-NH2; disulfide 5-16 (inferred); not fully specified (residues 1, 2); printed as Ac-KKGACMRGEWEWSWLCAA-CONH2) [Peptide D10pep10] | contact the pocket with very similar binding interfaces | 
6 | Ac-KKGACPPLNKEWAWLCAA-CONH2 (Ac-KKG[dA][dC][dP][dP][dL][dN][dK][dE][dW][dA][dW][dL][dC][dA][dA]-NH2; disulfide 5-16 (inferred); not fully specified (residues 1, 2); printed as Ac-KKGACPPLNKEWAWLCAA-CONH2) [Peptide D10pep12] | contact the pocket with very similar binding interfaces | 
